ChEMBL document CHEMBL1201862, “PubChem BioAssay data set” (2004)
Calls of active or inactive are those of the source. Cut-off read from the data, not from the text of the source, for most assays here: actives have a measured EC50 and inactives only a lower limit.

Assays:
[1] = C. albicans growth with fluconazole, confirmation, fluorescence, retest (AID 2467); type: functional, cell-based
[2] = NIH-3T3 fibroblast cytotoxicity, dose response, cytotoxicity control, cell-based, fluorescence, Alamar Blue, secondary assay (AID 2327); type: functional;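 note: NIH-3T3 mouse fibroblasts cultured with fluconazole at 8 µg/mL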
SN12K1 = assay: cells; type: functional; conditions: Homo sapiens
P388 = assay: cells; type: functional; conditions: Mus musculus
P388/ADR = assay: cells; type: functional; conditions: Mus musculus
[3] = target: Voltage-dependent T-type calcium channel subunit alpha-1H (Homo sapiens, UniProt O95180); type: functional;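 note: channel activity triggered by adding a high calcium stimulation buffer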
Sequence of Voltage-dependent T-type calcium channel subunit alpha-1H (O95180 whole entry): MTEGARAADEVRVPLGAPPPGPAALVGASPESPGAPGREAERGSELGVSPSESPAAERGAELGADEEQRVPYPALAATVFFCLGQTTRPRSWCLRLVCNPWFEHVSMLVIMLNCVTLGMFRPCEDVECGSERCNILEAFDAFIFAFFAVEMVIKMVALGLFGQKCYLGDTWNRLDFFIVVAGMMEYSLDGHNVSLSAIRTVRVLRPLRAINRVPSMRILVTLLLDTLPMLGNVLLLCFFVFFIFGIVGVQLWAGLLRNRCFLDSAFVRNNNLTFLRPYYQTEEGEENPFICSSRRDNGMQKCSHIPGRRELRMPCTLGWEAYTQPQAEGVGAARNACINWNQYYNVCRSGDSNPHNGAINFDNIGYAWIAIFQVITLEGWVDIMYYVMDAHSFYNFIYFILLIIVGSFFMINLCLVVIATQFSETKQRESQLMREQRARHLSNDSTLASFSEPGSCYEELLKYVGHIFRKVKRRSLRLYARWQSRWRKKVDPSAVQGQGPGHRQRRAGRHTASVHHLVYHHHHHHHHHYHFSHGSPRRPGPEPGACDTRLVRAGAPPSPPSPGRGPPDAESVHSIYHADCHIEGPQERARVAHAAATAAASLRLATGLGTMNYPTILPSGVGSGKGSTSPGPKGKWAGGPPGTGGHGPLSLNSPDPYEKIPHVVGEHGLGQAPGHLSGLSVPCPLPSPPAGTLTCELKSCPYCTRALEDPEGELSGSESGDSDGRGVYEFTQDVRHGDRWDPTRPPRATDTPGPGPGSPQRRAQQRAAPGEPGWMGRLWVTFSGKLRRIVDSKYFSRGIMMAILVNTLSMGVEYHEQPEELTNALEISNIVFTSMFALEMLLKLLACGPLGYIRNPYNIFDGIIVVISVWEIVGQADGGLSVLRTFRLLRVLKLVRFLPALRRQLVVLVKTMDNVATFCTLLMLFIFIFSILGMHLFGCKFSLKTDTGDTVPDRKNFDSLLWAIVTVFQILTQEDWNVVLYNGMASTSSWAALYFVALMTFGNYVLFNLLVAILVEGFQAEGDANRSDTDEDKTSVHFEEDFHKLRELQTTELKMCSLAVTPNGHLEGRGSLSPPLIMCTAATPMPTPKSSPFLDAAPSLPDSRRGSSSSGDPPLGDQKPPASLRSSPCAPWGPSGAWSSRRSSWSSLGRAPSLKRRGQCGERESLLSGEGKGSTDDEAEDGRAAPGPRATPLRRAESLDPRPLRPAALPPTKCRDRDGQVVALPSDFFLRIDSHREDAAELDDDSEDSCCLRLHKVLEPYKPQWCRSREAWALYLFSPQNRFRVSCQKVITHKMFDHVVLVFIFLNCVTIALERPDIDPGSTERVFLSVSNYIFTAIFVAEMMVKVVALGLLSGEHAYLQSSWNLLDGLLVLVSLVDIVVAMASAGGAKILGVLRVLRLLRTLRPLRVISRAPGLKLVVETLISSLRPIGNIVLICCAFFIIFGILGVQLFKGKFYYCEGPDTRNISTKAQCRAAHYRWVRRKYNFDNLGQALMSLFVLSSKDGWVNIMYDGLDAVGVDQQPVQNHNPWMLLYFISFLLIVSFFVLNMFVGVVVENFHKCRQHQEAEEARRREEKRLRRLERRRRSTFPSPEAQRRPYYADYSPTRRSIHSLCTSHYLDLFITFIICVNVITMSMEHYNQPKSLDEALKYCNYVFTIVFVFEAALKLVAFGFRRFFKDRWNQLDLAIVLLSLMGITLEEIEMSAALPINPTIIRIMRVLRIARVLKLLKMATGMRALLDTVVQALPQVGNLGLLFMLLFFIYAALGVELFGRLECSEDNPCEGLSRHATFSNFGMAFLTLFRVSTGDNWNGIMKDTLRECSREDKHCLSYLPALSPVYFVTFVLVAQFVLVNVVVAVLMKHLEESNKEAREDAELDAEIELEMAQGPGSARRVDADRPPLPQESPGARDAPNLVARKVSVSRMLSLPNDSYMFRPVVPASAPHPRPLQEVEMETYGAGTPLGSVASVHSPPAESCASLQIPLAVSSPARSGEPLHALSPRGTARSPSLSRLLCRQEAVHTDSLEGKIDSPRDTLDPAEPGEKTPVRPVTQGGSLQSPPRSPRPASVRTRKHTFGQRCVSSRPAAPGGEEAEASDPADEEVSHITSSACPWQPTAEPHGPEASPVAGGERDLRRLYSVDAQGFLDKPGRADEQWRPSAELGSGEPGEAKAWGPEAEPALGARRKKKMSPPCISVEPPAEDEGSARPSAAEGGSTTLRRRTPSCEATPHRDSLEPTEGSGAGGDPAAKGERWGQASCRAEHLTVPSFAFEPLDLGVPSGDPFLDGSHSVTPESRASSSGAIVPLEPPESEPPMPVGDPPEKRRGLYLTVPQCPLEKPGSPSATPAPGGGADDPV

[4] = Luminescence Cell-Based Dose Confirmation HTS to Identify Activators of 5'UTR Stem-Loop Driven Alpha-Synuclein mRNA Translation in H4 Neuroglioblastoma Cells. [Related pubchem assays: 1829 (Project Summary), 1814 (Primary HTS)]; type: functional
H4 = assay: Luminescence Cell-Based Dose Response HTS to Identify Activators of 5'UTR Stem-Loop Driven Prion Protein mRNA Translation in H4 Neuroglioblastoma Cells. [Related pubchem assays: 1829 (Project Summary), 1814 (Primary HTS)]; type: functional; conditions: Homo sapiens
[5] = Luminescence Cell-Based Dose Response HTS to Identify Activators of Luciferase Translation or Activity in H4 […] Cells. [Related pubchem assays: 1829 (Project Summary), 1814 (Primary HTS)]; type: functional
Fatty acid synthase [6] = target: T1, Fatty acid synthase (Homo sapiens, UniProt P49327); assay: FAS thioesterase domain inhibitors, dose response, biochemical, kinetic fluorescence intensity (AID 624326); type: functional;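 note: rate of fluorescence rise from hydrolysis of a fluorogenic O-methyl fluorescein ester substrate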
T1 sequence (P49327 whole entry, the tested form may be a part): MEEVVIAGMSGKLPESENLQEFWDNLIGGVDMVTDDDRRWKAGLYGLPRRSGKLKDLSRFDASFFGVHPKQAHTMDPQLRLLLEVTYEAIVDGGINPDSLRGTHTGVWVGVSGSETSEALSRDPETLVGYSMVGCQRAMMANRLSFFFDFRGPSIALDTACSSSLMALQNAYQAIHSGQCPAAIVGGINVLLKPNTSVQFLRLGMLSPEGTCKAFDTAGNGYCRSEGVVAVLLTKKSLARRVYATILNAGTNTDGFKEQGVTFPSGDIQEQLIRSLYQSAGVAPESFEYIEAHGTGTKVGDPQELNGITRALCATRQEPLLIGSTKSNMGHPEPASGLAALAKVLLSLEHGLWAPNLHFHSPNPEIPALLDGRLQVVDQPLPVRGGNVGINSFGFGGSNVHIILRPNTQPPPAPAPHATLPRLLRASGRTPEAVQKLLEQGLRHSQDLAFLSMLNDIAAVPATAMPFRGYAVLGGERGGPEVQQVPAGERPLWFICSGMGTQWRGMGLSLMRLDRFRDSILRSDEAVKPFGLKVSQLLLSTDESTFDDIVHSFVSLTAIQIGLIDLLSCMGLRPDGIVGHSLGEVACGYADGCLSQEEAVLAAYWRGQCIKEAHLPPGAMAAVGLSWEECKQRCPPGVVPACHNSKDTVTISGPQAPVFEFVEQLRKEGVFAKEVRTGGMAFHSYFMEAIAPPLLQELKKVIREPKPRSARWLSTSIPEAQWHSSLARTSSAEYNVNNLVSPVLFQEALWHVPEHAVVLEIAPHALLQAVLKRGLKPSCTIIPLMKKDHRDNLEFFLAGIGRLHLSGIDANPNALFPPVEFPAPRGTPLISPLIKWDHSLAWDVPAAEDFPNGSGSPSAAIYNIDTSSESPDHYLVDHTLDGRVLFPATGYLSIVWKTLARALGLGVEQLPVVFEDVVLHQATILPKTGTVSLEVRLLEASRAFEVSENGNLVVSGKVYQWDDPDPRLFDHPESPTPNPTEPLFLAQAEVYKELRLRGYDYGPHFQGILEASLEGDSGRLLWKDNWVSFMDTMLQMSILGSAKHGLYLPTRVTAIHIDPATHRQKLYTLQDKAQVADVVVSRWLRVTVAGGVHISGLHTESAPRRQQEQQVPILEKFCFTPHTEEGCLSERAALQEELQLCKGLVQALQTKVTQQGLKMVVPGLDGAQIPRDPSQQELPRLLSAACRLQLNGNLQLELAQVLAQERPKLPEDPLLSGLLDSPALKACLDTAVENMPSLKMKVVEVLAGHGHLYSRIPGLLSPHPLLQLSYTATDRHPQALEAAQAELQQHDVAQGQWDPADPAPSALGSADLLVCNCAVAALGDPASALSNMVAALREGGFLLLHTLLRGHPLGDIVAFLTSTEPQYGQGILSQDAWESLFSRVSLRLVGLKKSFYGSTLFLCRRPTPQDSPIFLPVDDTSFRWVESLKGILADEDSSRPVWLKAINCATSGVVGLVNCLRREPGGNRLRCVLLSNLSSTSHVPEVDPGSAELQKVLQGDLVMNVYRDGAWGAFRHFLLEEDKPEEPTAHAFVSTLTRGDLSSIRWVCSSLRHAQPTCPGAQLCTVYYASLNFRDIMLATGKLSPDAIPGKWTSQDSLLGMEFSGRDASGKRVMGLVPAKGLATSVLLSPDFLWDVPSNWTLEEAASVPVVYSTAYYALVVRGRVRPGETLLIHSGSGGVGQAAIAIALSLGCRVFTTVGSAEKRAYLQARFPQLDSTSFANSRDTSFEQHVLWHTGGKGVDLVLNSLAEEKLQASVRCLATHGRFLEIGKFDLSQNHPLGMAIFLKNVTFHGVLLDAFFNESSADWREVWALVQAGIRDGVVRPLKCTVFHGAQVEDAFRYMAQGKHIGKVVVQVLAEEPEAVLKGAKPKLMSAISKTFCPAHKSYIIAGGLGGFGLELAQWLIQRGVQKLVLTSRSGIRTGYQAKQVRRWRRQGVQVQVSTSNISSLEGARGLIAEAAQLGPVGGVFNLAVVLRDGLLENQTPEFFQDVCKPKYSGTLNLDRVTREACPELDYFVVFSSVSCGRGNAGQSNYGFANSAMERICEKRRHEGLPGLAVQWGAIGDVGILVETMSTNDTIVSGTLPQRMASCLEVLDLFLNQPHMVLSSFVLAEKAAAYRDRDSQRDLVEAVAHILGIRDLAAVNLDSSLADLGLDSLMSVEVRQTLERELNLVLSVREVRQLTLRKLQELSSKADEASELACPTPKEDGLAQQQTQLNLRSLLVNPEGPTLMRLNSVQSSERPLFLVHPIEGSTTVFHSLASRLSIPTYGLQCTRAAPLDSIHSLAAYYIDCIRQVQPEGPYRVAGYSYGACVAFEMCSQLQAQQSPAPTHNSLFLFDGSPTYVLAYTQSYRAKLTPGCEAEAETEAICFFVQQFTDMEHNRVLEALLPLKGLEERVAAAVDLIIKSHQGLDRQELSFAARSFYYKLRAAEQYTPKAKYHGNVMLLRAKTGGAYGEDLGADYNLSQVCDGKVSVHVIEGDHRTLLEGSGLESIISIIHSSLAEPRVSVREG

Fatty acid synthase [7] = target: T1, Fatty acid synthase; assay: FAS thioesterase domain inhibitors, dose response, biochemical, endpoint fluorescence intensity, uHTS hits (AID 624327); type: functional;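 note: fluorescence from hydrolysis of an O-methyl fluorescein acyl ester substrate by the enzyme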
[8] = HepG2 cell cytotoxicity, dose response, cytotoxicity control, plate reader, cherry-pick, antagonist series (AID 743416); type: functional, cell-based
Caspase-6 = target: T2, Caspase-6 (Homo sapiens, UniProt P55212); assay: human caspase-6 inhibitors, dose response, biochemical, VEID-R110 fluorescence, cherry-pick (AID 720632)
T2 sequence (P55212 whole entry): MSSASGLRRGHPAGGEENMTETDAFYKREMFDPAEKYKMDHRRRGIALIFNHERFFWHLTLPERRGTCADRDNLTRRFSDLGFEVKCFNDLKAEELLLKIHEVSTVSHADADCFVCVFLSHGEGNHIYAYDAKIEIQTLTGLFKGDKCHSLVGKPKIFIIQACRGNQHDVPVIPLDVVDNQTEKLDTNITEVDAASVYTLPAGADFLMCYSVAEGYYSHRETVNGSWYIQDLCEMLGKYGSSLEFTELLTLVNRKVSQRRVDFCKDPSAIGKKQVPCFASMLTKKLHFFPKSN

[9] = cytotoxicity toward DRD oncogenic fibroblasts, dose response, cell-based, non-viral oncogenic, luminescence (AID 1934); type: functional; conditions: Homo sapiens
BJ [10] = assay: cells; type: functional, cell-based; conditions: Homo sapiens
BJ [11] = assay: cytotoxicity toward BJ-TERT-LT-ST fibroblasts, dose response, cell-based, RAS-independent, luminescence (AID 1935); type: functional; conditions: Homo sapiens;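 note: BJ fibroblasts immortalized with TERT plus LT and ST oncogenes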
BJ [12] = assay: cytotoxicity toward BJ-TERT fibroblasts, dose response, cell-based, RAS-independent, luminescence (AID 1933); type: functional; conditions: Homo sapiens
[13] = HEp-2 cell cytotoxicity, dose response, cytotoxicity control for RSV inhibitor project, HTS (AID 2410); type: functional; conditions: human respiratory syncytial virus
[14] = inhibitors of intracellular T. cruzi replication, confirmation, NIH3T3 host cells, beta-gal luminescence (AID 2044); type: functional, cell-based;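 note: intracellular parasites grown in NIH/3T3 mouse fibroblasts as host cells; luminescent beta-galactosidase reporter signal from transgenic T. cruzi replicating inside host cells; inhibitors lower the luminescence signal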
[15] = cytotoxicity toward NIH3T3 fibroblasts, dose response, counter-screen, cell-based, ATP luminescence, mouse fibroblasts (AID 2010); type: functional;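 note: cells exposed to compound for about 90 hours before reading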
[16] = tested on: Streptococcus sp. 'group A'; assay: growth inhibition of control SK(-) GAS strain, dose response, counter-screen for streptokinase expression inhibitor project, luminescence, kanamycin, BacTiterGlo, confirmation (AID 1900); type: functional, organism-based
Streptococcus = assay: Group A Streptococcus viability loss, dose response, counter-screen for streptokinase expression inhibitor project, luminescence, BacTiterGlo (AID 1915); type: functional, organism-based;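 note: potency for reduction of bacterial viability or growth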
Streptokinase A = target: T3, Streptokinase A (Streptococcus pyogenes serotype M1, UniProt P10520); assay: S. pyogenes streptokinase expression inhibitors, potency, dose response, plasminogen activation absorbance, OD405 (AID 1914); type: functional, Streptococcus pyogenes M1 GAS;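 note: secreted streptokinase activity via plasminogen activation per viability signal from cell pellet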
T3 sequence (P10520 whole entry): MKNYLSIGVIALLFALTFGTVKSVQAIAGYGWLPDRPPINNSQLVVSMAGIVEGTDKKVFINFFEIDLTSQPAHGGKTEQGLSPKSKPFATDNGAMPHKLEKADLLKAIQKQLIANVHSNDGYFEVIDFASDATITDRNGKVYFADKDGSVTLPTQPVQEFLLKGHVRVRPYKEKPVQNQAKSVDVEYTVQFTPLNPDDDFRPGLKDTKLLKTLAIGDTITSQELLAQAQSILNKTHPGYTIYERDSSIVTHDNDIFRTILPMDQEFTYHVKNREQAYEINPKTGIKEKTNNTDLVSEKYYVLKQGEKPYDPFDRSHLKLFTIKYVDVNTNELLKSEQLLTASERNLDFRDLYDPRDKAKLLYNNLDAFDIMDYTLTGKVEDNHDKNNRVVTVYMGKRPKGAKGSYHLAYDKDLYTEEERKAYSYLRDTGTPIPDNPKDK

Structure (SMILES): Cc1cc(Sc2nc(N)ncc2[N+](=O)[O-])ncn1
- EC50 [1]: 0.746 µM (active)
- EC50 [2]: 4.19 µM (inconclusive)

Structure (SMILES): CN(C)CCNC(=O)c1cccc2c1C(=O)c1ccccc1C2=O
- GI50 (SN12K1): 49.5 µM (inactive)
- GI50 (P388): 19.7 µM (inactive)
- GI50 (P388/ADR): 20.8 µM (inactive)

Structure (SMILES): Cc1nc2c(-c3ccc(F)cc3)c(C)nn2c(C)c1CCC(=O)N1CCN(c2ccc(F)cc2)CC1
- EC50 [3]: 5.21 µM (active)

Structure (SMILES): O=C(O)CSc1nc2sc3c(c2c(=O)n1Cc1ccccc1)CCCCC3
- EC50 [4]: > 60 µM (not active)
- EC50 (H4): 16.4 µM (active)
- EC50 [5]: 15.6 µM (active)

Structure (SMILES): COc1ccc(CC(=N)NOC(=O)c2cccc([N+](=O)[O-])c2)cc1
- IC50 (Fatty acid synthase [6]): 14.6 µM (active)
- IC50 (Fatty acid synthase [7]): 18.3 µM (active)

Structure (SMILES): COC1C(O)CC(OC2CC(Oc3cc4cc5c(c(O)c4c(O)c3C)C(=O)[C@@H](OC3CC(OC4CC(OC6CC(C)(O)C(OC(C)=O)C(C)O6)C(O)C(C)O4)C(O)C(C)O3)[C@H]([C@H](OC)C(=O)[C@@H](O)[C@@H](C)O)C5)OC(C)C2OC(C)=O)OC1C (stereo partly specified) [CHROMOMYCIN]
- GI50 (SN12K1): 0.0034 µM (active)
- GI50 (P388/ADR): 0.132 µM (active)

Structure (SMILES): Cc1ccc(C(=O)Cn2c(-c3ccccc3)noc2=O)cc1
- EC50 [4]: 13.1 µM (active)
- EC50 (H4): 15 µM (active)
- EC50 [5]: 12.4 µM (active)

Structure (SMILES): COc1ccc(-c2noc(CCC(=O)N3CCN(c4cc(C)ccc4C)CC3)n2)cc1
- EC50 [3]: 3.63 µM (active)

Structure (SMILES): CC1CCC(NC(=O)N(CCCl)N=O)CC1 (stereo unspecified) [SEMUSTINE]
- EC50 [4]: 5.98 µM (active)
- EC50 (H4): 16.2 µM (active)
- EC50 [5]: 24 µM (active)

Structure (SMILES): Nc1ncc2c(n1)-c1ccccc1OC2
- GI50 (SN12K1): > 100 µM (inactive)
- GI50 (P388): > 100 µM (inactive)

Structure (SMILES): COc1cc([C@@H]2c3cc4c(c(O[C@@H]5O[C@H]6CO[C@@H](C)O[C@H]6[C@H](O)[C@@H]5O)c3C[C@H]3COC(=O)[C@@H]32)OCO4)cc(OC)c1O
- GI50 (SN12K1): 10.9 µM (inactive)
- GI50 (P388): 2.16 µM (inactive)

Structure (SMILES): CC(/C=N/N=C(N)N)=N\N=C(N)N
- GI50 (SN12K1): 2.17 µM (inactive)
- GI50 (P388): 0.25 µM (active)
- GI50 (P388/ADR): 0.519 µM (active)

Structure (SMILES): Cc1cc(C)c(NS(=O)(=O)c2cccc3cccnc23)c(C)c1
- EC50 [1]: > 38 µM (not active)
- EC50 [2]: 38.5 µM (active)

Structure (SMILES): Cc1ccc(S(=O)(=O)N2CCCc3nc(-c4ccc(F)cc4)ccc32)cc1
- AC50 [8]: > 52 µM (inactive)

Structure (SMILES): COc1ccc(-n2c(C)cc(/C=C/c3nc(O)c([N+](=O)[O-])c(O)n3)c2C)cc1
- AC50 (Caspase-6): 18.8 µM (active)

Structure (SMILES): O=C(NCc1ccco1)c1cc2c(s1)CCCCC2
- EC50 [4]: 34 µM (active)
- EC50 (H4): > 120 µM (not active)
- EC50 [5]: 41.9 µM (active)

Structure (SMILES): CC(=O)c1ccc(Oc2ccc(C(=O)c3ccc(C)c(C)c3)cc2[N+](=O)[O-])cc1
- EC50 [9]: > 150 µM (inconclusive)
- EC50 (BJ [10]): > 150 µM (not active)
- EC50 (BJ [11]): > 150 µM (not active)
- EC50 (BJ [12]): 26.4 µM (active)

Structure (SMILES): O=S(=O)(c1ccc(-c2csc(-c3cccnc3)n2)cc1)N1CCCCC1
- CC50 [13]: 40.1 µM (active)
- IC50 (Fatty acid synthase [6]): 3.65 µM (active)
- EC50 [14]: 1.89 µM (active)
- EC50 [15]: > 30 µM (not active)

Structure (SMILES): [O-][n+]1c2ccccc2[n+]([O-])c2cc(O)ccc21
- EC50 [16]: 7.97 µM (active)
- EC50 (Streptococcus): 17.3 µM (active)
- AC50 (Caspase-6): 6.89 µM (active)
- EC50 (Streptokinase A): > 150 µM (not active)
